Assay results as given in patent US20090118372A1, “Inhibitors Of Biotin Protein Ligase” (Adelaide Research & Innovation Pty Ltd., priority 2004, published 2009).

How the values were obtained:
C. albicans BPL = C. albicans BPL (Candida albicans, UniProt A0A1D8PUA1); assay: biochemical; assay type: biochemical
Procedure: One hundred ng of biotin domain was coated onto each well of Griener Lumitrac 600 White 96-well plates (Stennick Scientific) with >95% of the peptide binding. Coating was performed overnight at 4° C. in 100 uL of Tris Buffered saline (TBS, pH 7.5). The sample was removed and wells blocked in 150 ul of a 1% BSA solution in TBS for 1 hr at 37° C. The blocking buffer was removed and wells washed five times in TBS buffer containing 0.1% Tween-20. Into each well 85 ul of the BPL reaction mix was added. The reaction for both C. albicans and human BPL are performed in 50 mM Tris-HCl pH 8.0, 100 uM ATP, 5.5 mM MgCl2, 0.1 mg/ml BSA, 10 uM biotin, 0.1 uM dithiothreitol.
Ten ul of either buffer alone or buffer containing inhibitor was added to the reaction mix and pre-equilibrated at 37° C. for 5 minutes. BPL reactions are initiated by the addition of 5 ul enzyme to a final concentration of 3.4 nM (1-5 nM). The reaction is allowed to proceed at 37° C. for 15 minutes at which point it is terminated by the addition of 5 ul 0.5 M EDTA (final concentration 25 mM). The reaction mix was discarded and wells washed five times in TBS-TD (TBS, 0.1% Tween-20 and 100 uM diethylenetriaminepentaacetic acid (DPTA)). The quantitative analysis of biotinylated protein formed in the reaction and coupled onto the well surface was determined using time resolved fluorescence. Fifty ul of Europium labelled streptavidin (Perkin-Elmer) solution, diluted to 0.1 ug/ml in TBS-TD, was added to each well. The plates were incubated at 37° C. for 1 hr before being washed five times in TBS-TD then three times in water. Fifty ul of DELFIA Enhancement solution (Perkin Elmer) was added and incubated for ten minutes at room temperature before quantitation. Quantitation was performed using a FLUOstar Galaxy plate reader (BMG Labtechnologies).
Each compound in the screening library was dissolved in 100% DMSO, added to the reactions to a final concentration of 10 μM or 50 μM and their effect on BPL activity measured. […] The inhibitory activity of the compounds was determined relative to the negative control reactions containing only DMSO.

human BPL [1] = molecular target: T1, human BPL (Homo sapiens, UniProt P50747); assay: In vitro biotinylation assay of human BPL (Example 9); assay type: biochemical
T1 construct: Vector pARA(hBPL-His6) was produced by cloning the full-length gene into Nco1/Hind111 treated pARA13; initiator Met (NcoI site) before Ala80 (N); made in house; host or cells: E. coli BL21(DE3)pLys, pET-16b vector
T1 sequence (P50747 80-726 limits assumed): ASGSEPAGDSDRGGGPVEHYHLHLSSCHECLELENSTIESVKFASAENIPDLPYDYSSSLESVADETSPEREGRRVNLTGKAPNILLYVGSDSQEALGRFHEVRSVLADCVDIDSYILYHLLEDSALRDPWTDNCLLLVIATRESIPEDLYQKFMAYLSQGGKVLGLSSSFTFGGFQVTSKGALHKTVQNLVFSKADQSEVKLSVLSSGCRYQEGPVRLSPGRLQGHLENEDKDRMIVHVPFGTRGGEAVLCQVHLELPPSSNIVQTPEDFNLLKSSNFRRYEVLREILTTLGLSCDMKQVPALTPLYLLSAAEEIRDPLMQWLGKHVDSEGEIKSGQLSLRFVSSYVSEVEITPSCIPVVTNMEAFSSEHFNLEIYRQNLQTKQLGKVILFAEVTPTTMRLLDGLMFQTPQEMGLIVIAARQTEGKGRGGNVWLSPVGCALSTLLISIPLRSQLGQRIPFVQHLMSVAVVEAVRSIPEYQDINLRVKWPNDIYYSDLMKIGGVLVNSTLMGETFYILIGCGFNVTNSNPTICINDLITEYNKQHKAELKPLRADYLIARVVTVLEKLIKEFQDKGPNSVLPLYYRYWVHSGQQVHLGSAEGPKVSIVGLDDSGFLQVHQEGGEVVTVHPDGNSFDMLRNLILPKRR
Procedure: (§1) One hundred ng of biotin domain was coated onto each well of Griener Lumitrac 600 White 96-well plates (Stennick Scientific) with >95% of the peptide binding. Coating was performed overnight at 4° C. in 100 uL of Tris Buffered saline (TBS, pH 7.5). The sample was removed and wells blocked in 150 ul of a 1% BSA solution in TBS for 1 hr at 37° C. The blocking buffer was removed and wells washed five times in TBS buffer containing 0.1% Tween-20. Into each well 85 ul of the BPL reaction mix was added. The reaction for both C. albicans and human BPL are performed in 50 mM Tris-HCl pH 8.0, 100 uM ATP, 5.5 mM MgCl2, 0.1 mg/ml BSA, 10 uM biotin, […].
Ten ul of either buffer alone or buffer containing inhibitor was added to the reaction mix and pre-equilibrated at 37° C. for 5 minutes. […] The quantitative analysis of biotinylated protein formed in the reaction and coupled onto the well surface was determined using time resolved fluorescence. […] Fifty ul of DELFIA Enhancement solution (Perkin Elmer) was added and incubated for ten minutes at room temperature before quantitation. Quantitation was performed using a FLUOstar Galaxy plate reader (BMG Labtechnologies). […]
(§2) The activity of BPL from Escherichia coli, Staphylococcus aureus, Saccharomyces cerevisiae and Homo sapiens was measured using an in vitro biotinylation assay in the presence of increasing concentrations of Compounds 2 to 5.

Escherichia coli BPL = molecular target: T2, Escherichia coli BPL (Escherichia coli, UniProt P06709); assay: In vitro biotinylation assay of E. coli BPL; assay type: biochemical
T2 construct: the plasmid pHBA, which contains the entire coding region for E. coli BirA; made in house; host or cells: E. coli BL21(DE3), plasmid pHBA (pET-16b)
Procedure: (§3) Purified hPC-108 was analysed in an in vitro biotinylation assay using recombinant human BPL as follows: BPL activity was assayed by measuring the incorporation of [^3H]biotin into biotin domain. The reactions contained 50 mM Tris-HCl, pH 8.0, 3 mM ATP, 5.5 mM MgCl2, 50 mM KCl, 5 uM biotin, 5 pmol [^3H]biotin (specific activity 35-44 Ci/mmol) 0.1 mM dithiothreitol, 0.1 mg/ml BSA and varying concentrations of hPC-108. The reaction was initiated by addition of purified […] BPL to a final concentration of 13 nM and incubated at 37° C. for up to 30 minutes when aliquots of the reaction were spotted onto biotin- and trichloroacetic acid-treated filters. After air-drying, the filters were washed twice in 10% ice cold trichloroacetic acid and once in ethanol, dried and the acid insoluble radioactivity measured. Values for Km and Vmax were determined by fitting a plot of substrate concentration against rate to the Michaelis-Menten equation using GraphPad Prism for MacIntosh (GraphPad Software Inc, San Diego, Calif.).
as §2

[2] = molecular target: T3, Staphylococcus aureus BPL (UniProt A0A3A5LBF0); assay: In vitro biotinylation assay of S. aureus BPL; assay type: biochemical
T3 sequence (A0A3A5LBF0 1-323): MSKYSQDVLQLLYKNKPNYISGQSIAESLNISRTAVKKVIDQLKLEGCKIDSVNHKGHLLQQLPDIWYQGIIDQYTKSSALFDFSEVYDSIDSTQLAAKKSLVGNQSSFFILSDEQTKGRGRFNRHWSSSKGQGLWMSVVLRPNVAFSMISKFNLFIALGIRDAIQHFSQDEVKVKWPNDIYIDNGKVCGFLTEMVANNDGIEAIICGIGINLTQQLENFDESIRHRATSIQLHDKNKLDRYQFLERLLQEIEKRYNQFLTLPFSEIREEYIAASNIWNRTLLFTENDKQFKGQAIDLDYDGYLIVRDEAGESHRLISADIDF
Procedure: as §3, §2

[3] = molecular target: T4, Saccharomyces cerevisiae BPL (Saccharomyces cerevisiae, UniProt P48445); assay: In vitro biotinylation assay of S. cerevisiae BPL; assay type: biochemical
T4 sequence (P48445 1-690): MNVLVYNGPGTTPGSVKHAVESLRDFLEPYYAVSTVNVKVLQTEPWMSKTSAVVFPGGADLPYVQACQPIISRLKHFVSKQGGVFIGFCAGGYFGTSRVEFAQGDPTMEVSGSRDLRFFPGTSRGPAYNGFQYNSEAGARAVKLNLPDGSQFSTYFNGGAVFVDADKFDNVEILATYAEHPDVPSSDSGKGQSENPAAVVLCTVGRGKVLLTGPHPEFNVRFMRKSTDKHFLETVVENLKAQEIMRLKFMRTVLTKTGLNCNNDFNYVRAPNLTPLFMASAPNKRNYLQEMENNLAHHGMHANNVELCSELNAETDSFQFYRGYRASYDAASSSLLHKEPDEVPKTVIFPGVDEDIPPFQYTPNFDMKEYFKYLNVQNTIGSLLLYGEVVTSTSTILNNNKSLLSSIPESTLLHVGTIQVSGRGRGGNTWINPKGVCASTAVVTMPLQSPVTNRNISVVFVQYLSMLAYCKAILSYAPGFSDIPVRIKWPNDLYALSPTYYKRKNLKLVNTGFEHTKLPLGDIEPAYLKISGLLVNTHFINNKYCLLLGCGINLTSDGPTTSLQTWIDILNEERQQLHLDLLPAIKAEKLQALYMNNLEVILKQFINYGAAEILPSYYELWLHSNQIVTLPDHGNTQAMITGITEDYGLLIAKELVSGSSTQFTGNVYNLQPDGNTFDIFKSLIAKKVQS
Procedure: as §1
Ten ul of either buffer alone or buffer containing inhibitor was added to the reaction mix and pre-equilibrated at 37° C. for 5 minutes. […] The quantitative analysis of biotinylated protein formed in the reaction and coupled onto the well surface was determined using time resolved fluorescence. […] Fifty ul of DELFIA Enhancement solution (Perkin Elmer) was added and incubated for ten minutes at room temperature before quantitation. Quantitation was performed using a FLUOstar Galaxy plate reader (BMG Labtechnologies).
as §2

Staphylococcus aureus = assay: Antibiotic activity against Staphylococcus aureus on solid media and in liquid culture; assay type: cell-based; settings: L-agar, filter disc soaked in 100 μM, overnight 37° C.
Procedure: The antibacterial properties of Compound 2 were assessed against Staphylococcus aureus grown on both solid media (A-C) and in liquid culture (D). Log phase culture was plated onto L-agar and filter discs soaked in A) DMSO (vehicle control), B) 100 μM ampicillin or C) 100 μM compound #2. A single filter was placed in the centre of a bacterial plate before being placed at 37° C. overnight. The clear zone surrounding the disc in B & C represents sensitivity of S. aureus to the treatment. D) This sensitivity was quantitated in liquid culture by seeding 10^4 cells in a 96 well plate followed by overnight growth at 37° C. The growth of the culture was measured by absorbance at 600 nm.

[4] = test system: T5, hPC-108, biotin domain of human pyruvate carboxylase (C-terminal 108 amino acids), cleaved from GST
T5 sequence: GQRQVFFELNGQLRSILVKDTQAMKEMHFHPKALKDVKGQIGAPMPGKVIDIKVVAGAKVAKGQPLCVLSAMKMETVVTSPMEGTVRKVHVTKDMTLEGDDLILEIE

human BPL [5] = molecular target: T1, human BPL; assay: Kinetic analysis of biotinylation of hPC-108, [3H]biotin incorporation assay; assay type: biochemical; settings: varying concentrations of hPC-108; read-out: KM of human BPL for the biotin domain
Procedure: as §3

Chain of C. albicans BPL (A0A1D8PUA1 entry or part of it): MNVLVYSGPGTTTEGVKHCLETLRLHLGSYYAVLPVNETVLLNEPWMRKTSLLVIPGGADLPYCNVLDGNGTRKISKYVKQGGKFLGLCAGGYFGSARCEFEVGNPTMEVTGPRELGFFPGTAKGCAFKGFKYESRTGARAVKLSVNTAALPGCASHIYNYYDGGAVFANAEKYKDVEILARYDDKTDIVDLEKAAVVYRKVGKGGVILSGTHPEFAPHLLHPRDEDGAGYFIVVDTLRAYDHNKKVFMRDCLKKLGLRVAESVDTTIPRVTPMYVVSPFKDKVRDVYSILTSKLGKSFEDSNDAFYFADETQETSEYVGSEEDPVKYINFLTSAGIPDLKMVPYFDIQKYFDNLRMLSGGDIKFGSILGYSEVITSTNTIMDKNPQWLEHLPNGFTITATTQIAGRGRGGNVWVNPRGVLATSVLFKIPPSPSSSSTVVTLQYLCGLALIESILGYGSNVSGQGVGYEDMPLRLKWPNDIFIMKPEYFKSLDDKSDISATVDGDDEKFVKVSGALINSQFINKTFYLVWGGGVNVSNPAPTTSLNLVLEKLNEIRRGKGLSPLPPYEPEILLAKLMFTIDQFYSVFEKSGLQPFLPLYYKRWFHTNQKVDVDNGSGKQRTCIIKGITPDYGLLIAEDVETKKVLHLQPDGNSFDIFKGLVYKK
T2 sequence (P06709 whole entry): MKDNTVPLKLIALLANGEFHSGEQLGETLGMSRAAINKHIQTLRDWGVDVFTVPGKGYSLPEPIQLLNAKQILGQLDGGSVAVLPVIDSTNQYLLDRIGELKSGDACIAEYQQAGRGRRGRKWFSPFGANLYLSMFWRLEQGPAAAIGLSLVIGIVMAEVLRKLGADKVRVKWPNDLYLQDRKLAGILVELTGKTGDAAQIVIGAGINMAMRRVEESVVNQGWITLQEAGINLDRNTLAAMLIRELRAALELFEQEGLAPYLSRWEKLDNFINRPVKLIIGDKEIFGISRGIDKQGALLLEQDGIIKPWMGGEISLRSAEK

## Nc1ncnc2c1ncn2C1OC(COP(=O)(O)OCCCCCC2SCC3NC(=O)NC32)C(O)C1O (stereo not drawn) [BtnOH-AMP, biotinol-adenylate]
C. albicans BPL
  Inhibition of the Candida BPL reaction (in words): potent inhibitors
C. albicans BPL; concentration response curve, read-out: IC50, inhibition of Candida BPL activity
  IC50: 1 ± 0.2 µM
Human BPL [1]
  Inhibition of the human BPL reaction (in words): inhibitor

## C=CCC(Cc1cc(OC)cc(OC)c1)(C(=O)O)C(=O)O [Compound 4, 2-allyl-2-(3,5-dimethoxybenzyl)malonic acid]
Human BPL [1]
  IC50: > 50 µM
Escherichia coli BPL
  IC50: 0.0009 µM
[2]
  IC50: 2.7 µM
[3]
  IC50: > 50 µM

## CC1(C)S[C@@H]2[C@H](NC(=O)[C@H](N)c3ccccc3)C(=O)N2[C@H]1C(=O)O [ampicillin]
Staphylococcus aureus
  Sensitivity of S. aureus on solid media (filter disc): clear zone

## O=P(O)(O)OP(=O)(O)O [pyrophosphate]
C. albicans BPL
  Inhibition of the Candida BPL reaction (in words): potent inhibitors
C. albicans BPL; in the range of 50 uM to 1 mM
  Inhibition of the Candida BPL reaction by pyrophosphate: strongly inhibited

## recombinant human biotin protein ligase [Met1-Ala80]hBPL-His6
[4]
  KM (in vitro [3H]biotin incorporation assay, Michaelis-Menten fit): 1.0 ± 0.2 µM

B1: hPC-108: polypeptide of the C-terminal 108 amino acids (biotin domain) of human pyruvate carboxylase, BPL substrate (protein)
chain: GQRQVFFELNGQLRSILVKDTQAMKEMHFHPKALKDVKGQIGAPMPGKVIDIKVVAGAKVAKGQPLCVLSAMKMETVVTSPMEGTVRKVHVTKDMTLEGDDLILEIE
Human BPL [5]
  Km: 1 ± 0.2 µM
